Assay results from the NIST ThermoML archive (doi:10.1016/j.jct.2016.04.014).

Details: Liquid, Vibrating tube method

CCCCCCC [heptane]
mass density [kg/m3]
Details	288.15 K	293.15 K	298.15 K	303.15 K	308.15 K	313.15 K	318.15 K	323.15 K
100 kPa	688.4	684.2	679.9	675.7	671.4	667.1	662.7	658.3
101 kPa	688.33	684.11	679.87	675.6	671.31	667	–	–
1000 kPa	689.2	685	680.7	676.5	672.2	668	663.6	659.3
5000 kPa	692.5	688.4	684.3	680.2	676	672	667.7	663.5
10000 kPa	696.5	692.6	688.6	684.6	680.6	676.7	672.6	668.6
15000 kPa	700.4	696.5	692.7	688.9	685	681.2	677.3	673.4
20000 kPa	704.1	700.4	696.6	693	689.2	685.5	681.8	678
25000 kPa	707.7	704	700.4	696.8	693.2	689.6	686	682.4
30000 kPa	711.1	707.5	704	700.5	697	693.5	690	686.5
35000 kPa	714.3	710.9	707.4	704	700.6	697.2	693.8	690.4
40000 kPa	717.4	714	710.7	707.4	704	700.7	697.4	–
45000 kPa	720.3	717	713.8	710.5	707.2	704	700.7	–
50000 kPa	723.1	719.9	716.7	713.5	710.3	707.1	703.9	–
55000 kPa	725.8	722.5	719.4	716.2	713.1	709.9	706.8	–
60000 kPa	728.2	725.1	721.9	718.8	715.7	712.6	709.5	–
